Reference: patent US20240166649A1, “DIHYDROPYRIMIDINE COMPOUND, PREPARATION METHOD THEREFOR AND APPLICATION THEREOF” (Shanghai Visonpharma Co., Ltd., priority 2021, published 2024)

Each compound was assayed on HBV (hepatitis B virus) in HepG2.2.15 cells (assay: Cell-based anti-viral activity assay (HBV DNA in supernatant by quantitative PCR)). Conditions: 120 h, anti-HBV activity, HepG2.2.15 cells, 5 days, read-out: EC50 (HepG2.2.15).
Description: Cell-Based Anti-Viral Activity Assay
The Invention determined the anti-HBV (hepatitis B virus) activity of compounds in HepG2.2.15 cells (Table 1).
HepG2.2.15 is a cell line stably transfected with the HBV genome. HepG2.2.15 cells were cultured in DMEM (1X) with 10% fetal bovine serum (Corning), 100 U penicillin (Gibico), 100 μg/mL streptomycin (Gibico), 250 μg/mL geneticin (Gibco) and GlutaMAXTM-I medium (Invitrogen).
HepG2.2.15 cells were seeded into 96-well plates (4×10^4 cells in 100 μL of medium per well) and incubated overnight at 37° C. The test compounds were weighed and prepared as 10 mM stock solution with DMSO. The stock solutions of the compounds were diluted by a gradient of 3.16 times with DMSO, and then diluted by a gradient of 3.16 times with medium for 50 times. Finally, the diluted compound solutions were added to the cell plate with a total volume of 200 μL and the final DMSO concentration was 1%. The 96-well culture plates loaded with drugs were transferred to an incubator at 37° C. for 5 days. […] nucleic acid releasing agent was added to 96-well PCR reaction plate, and 2 μL of cell supernatant or HBV quantitative standards were added to the corresponding Wells. Centrifuged the plates to fully mix, and incubated at room temperature for 10 min to fully release nucleic acid. Quantified HBV DNA content by fluorescent quantitative PCR (CFX Connect Real-Time System) using Sanxiang Bio hepatitis B virus fluorescent quantitative diagnostic kit.
The standard curve was established by taking the logarithm of the copy number (IU/ml) of the HBV standard sample (log 10) as the abscordinate and the corresponding CT value as the ordinate. The copy number of the sample was calculated according to the corresponding CT of the positive sample and the standard curve, and the percentage of inhibition rate was calculated as follows: • % Inhibition=100-100*(sample HBV copy number−high concentration reference compound column HBV copy number)/DMSO column HBV copy number−high concentration reference compound column HBV copy number).

| Compound | EC50 [nM] |
| --- | --- |
| CCOC(=O)C1=C(CN2CCN3C(=O)N(C45CC(COC)(C4)C5)C[C@@H]3C2)NC(c2nccs2)=N[C@H]1c1cccc(F)c1C [Compound 3, Ethyl (S)-4-(3-Fluoro-2-Methylphenyl)-6-(((S)-2-(3-(Methoxymethyl)Bicyclo[1.1.1]Pentan-1-Yl)-3-Oxohexahydroimidazo[1,5-a]Pyrazin-7(1H)-Yl)Methyl)-2-(Thiazol-2-Yl)-1,4-Dihydropyrimidine-5-Carboxylate] | 4 |
| CCOC(=O)C1=C(CN2CCN3C(=O)N(C45CC(CC(C)(C)C(=O)O)(C4)C5)C[C@@H]3C2)NC(c2nccs2)=N[C@H]1c1cccc(F)c1C [Compound 4] | 8 |
| CCOC(=O)C1=C(CN2CCN3C(=O)N(C45CC(C(=O)N6CCCC6)(C4)C5)C[C@@H]3C2)NC(c2nccs2)=N[C@H]1c1cccc(F)c1C [Compound 6, Ethyl (S)-4-(3-Fluoro-2-Methylphenyl)-6-(((S)-3-Oxo-2-(3-(Pyrrolidine-1-Carbonyl)Bicyclo[1.1.1]Pentan-1-Yl)Hexahydroimidazo[1,5-a]Pyrazin-7(1H)-Yl)Methyl)-2-(Thiazol-2-Yl)-1,4-Dihydropyrimidine-5-Carboxylate] | 8 |
| CCOC(=O)C1=C(CN2CCN3C(=O)N(C45CC(C(N)=O)(C4)C5)C[C@@H]3C2)NC(c2nccs2)=N[C@H]1c1cccc(F)c1C [Compound 7, ethyl (S)-6-(((S)-2-(3-Carbamoylbicyclo[1.1.1]Pentan-1-Yl)-3-Oxohexahydroimidazo[1,5-a]Pyrazin-7(1H)-Yl)Methyl)-4-(3-Fluoro-2-Methylphenyl)-2-(Thiazol-2-Yl)-1,4-Dihydropyrimidine-5-Carboxylate] | 7 |
| CCOC(=O)C1=C(CN2CCN3C(=O)N(C45CC(CS(C)(=O)=O)(C4)C5)C[C@@H]3C2)NC(c2nccs2)=N[C@H]1c1cccc(F)c1C [Compound 8, Ethyl (S)-4-(3-Fluoro-2-Methylphenyl)-6-(((S)-2-(3-((Methylsulfonyl)Methyl)Bicyclo[1.1.1]Pentan-1-Yl)-3-Oxohexahydroimidazo[1,5-a]Pyrazin-7(1H)-Yl)Methyl)-2-(Thiazol-2-Yl)-1,4-Dihydropyrimidine-5-Carboxylate] | 4 |
| CCOC(=O)C1=C(CN2CCN3C(=O)N(C45CC(NS(C)(=O)=O)(C4)C5)C[C@@H]3C2)NC(c2nccs2)=N[C@H]1c1cccc(F)c1C [Compound 9, Ethyl (S)-4-(3-Fluoro-2-Methylphenyl)-6-(((S)-2-(3-(Methylsulfonamido)Bicyclo[1.1.1]Pentan-1-Yl)-3-Oxohexahydroimidazo[1,5-a]Pyrazin-7(1H)-Yl)Methyl)-2-(Thiazol-2-Yl)-1,4-Dihydropyrimidine-5-Carboxylate] | 4 |
| CCOC(=O)C1=C(CN2CCN3C(=O)N(C45CC(NC(C)=O)(C4)C5)C[C@@H]3C2)NC(c2nccs2)=N[C@H]1c1cccc(F)c1C [Compound 10, Ethyl (S)-6-(((S)-2-(3-Acetamidobicyclo[1.1.1]Pentan-1-Yl)-3-Oxohexahydroimidazo[1,5-a]Pyrazin-7(1H)-Yl)Methyl)-4-(3-Fluoro-2-Methylphenyl)-2-(Thiazol-2-Yl)-1,4-Dihydropyrimidine-5-Carboxylate] | 8 |
| CCOC(=O)C1=C(CN2CCN3C(=O)N(C45CC(N(C)S(C)(=O)=O)(C4)C5)C[C@@H]3C2)NC(c2nccs2)=N[C@H]1c1cccc(F)c1C [Compound 11, Ethyl (S)-4-(3-Fluoro-2-Methylphenyl)-6-(((S)-2-(3-(N-Methylmethylsulfonamido)Bicyclo[1.1.1]Pentan-1-Yl)-3-Oxohexahydroimidazo[1,5-a]Pyrazin-7(1H)-Yl)Methyl)-2-(Thiazol-2-Yl)-1,4-Dihydropyrimidine-5-Carboxylate] | 4 |
| CCOC(=O)C1=C(CN2CCN3C(=O)N(C45CC(N(C)C(C)=O)(C4)C5)C[C@@H]3C2)NC(c2nccs2)=N[C@H]1c1cccc(F)c1C [Compound 12, Ethyl (S)-4-(3-Fluoro-2-Methylphenyl)-6-(((S)-2-(3-(N-Methylacetamido)Bicyclo[1.1.1]Pentan-1-Yl)-3-Oxohexahydroimidazo[1,5-a]Pyrazin-7(1H)-Yl)Methyl)-2-(Thiazol-2-Yl)-1,4-Dihydropyrimidine-5-Carboxylate] | 3 |
| CCOC(=O)C1=C(CN2CCN3C(=O)N(C45CC(N6CCCC6=O)(C4)C5)C[C@@H]3C2)NC(c2nccs2)=N[C@H]1c1cccc(F)c1C [Compound 13, Ethyl (S)-4-(3-Fluoro-2-Methylphenyl)-6-(((S)-3-Oxo-2-(3-(2-Oxopyrrolidin-1-Yl)Bicyclo[1.1.1]Pentan-1-Yl) Hexahydroimidazo[1,5-a]Pyrazin-7(1H)-Yl)Methyl)-2-(Thiazol-2-Yl)-1,4-Dihydropyrimidine-5-Carboxylate] | 8 |
| CCOC(=O)C1=C(CN2CCN3C(=O)N(C45CC(CNS(C)(=O)=O)(C4)C5)C[C@@H]3C2)NC(c2nccs2)=N[C@H]1c1cccc(F)c1C [Compound 14, Ethyl (S)-4-(3-Fluoro-2-Methylphenyl)-6-(((S)-2-(3-(Methylsulfonamidomethyl)Bicyclo[1.1.1]Pentan-1-Yl)-3-Oxohexahydroimidazo[1,5-a]Pyrazin-7(1H)-Yl)Methyl)-2-(Thiazol-2-Yl)-1,4-Dihydropyrimidine-5-Carboxylate] | 4 |
| CCOC(=O)C1=C(CN2CCN3C(=O)N(C45CC(CNC(C)=O)(C4)C5)C[C@@H]3C2)NC(c2nccs2)=N[C@H]1c1cccc(F)c1C [Compound 15, ethyl (S)-6-(((S)-2-(3-(Acetamidomethyl)Bicyclo[1.1.1]Pentan-1-Yl)-3-Oxohexahydroimidazo[1,5-a]Pyrazin-7(1H)-Yl)Methyl)-4-(3-Fluoro-2-Methylphenyl)-2-(Thiazol-2-Yl)-1,4-Dihydropyrimidine-5-Carboxylate] | 4 |
| CCOC(=O)C1=C(CN2CCN3C(=O)N(C45CC(N6CCCS6(=O)=O)(C4)C5)C[C@@H]3C2)NC(c2nccs2)=N[C@H]1c1cccc(F)c1C [Compound 19, Ethyl (S)-6-(((S)-2-(3-(1,1-Dioxidoisothiazolidin-2-Yl)Bicyclo[1.1.1]Pentan-1-Yl)-3-Oxohexahydroimidazo[1,5-a]Pyrazin-7(1H)-Yl)Methyl)-4-(3-Fluoro-2-Methylphenyl)-2-(Thiazol-2-Yl)-1,4-Dihydropyrimidine-5-Carboxylate] | 3 |
| CCOC(=O)C1=C(CN2CCN3C(=O)N(C45CC(CC#N)(C4)C5)C[C@@H]3C2)NC(c2nccs2)=N[C@H]1c1cccc(F)c1C [Compound 20, Ethyl (S)-6-(((S)-2-(3-(Cyanomethyl)Bicyclo[1.1.1]Pentan-1-Yl)-3-Oxohexahydroimidazo[1,5-a]Pyrazin-7 (1H)-Yl)Methyl)-4-(3-Fluoro-2-Methylphenyl)-2-(Thiazol-2-Yl)-1,4-Dihydropyrimidine-5-Carboxylate] | 3 |
| CCOC(=O)C1=C(CN2CCN3C(=O)N(C45CC(NS(N)(=O)=O)(C4)C5)C[C@@H]3C2)NC(c2nccs2)=N[C@H]1c1cccc(F)c1C [Compound 21, Ethyl (S)-4-(3-Fluoro-2-Methylphenyl)-6-(((S)-3-Oxo-2-(3-(Sulfamoylamino)Bicyclo[1.1.1]Pentan-1-Yl)Hexahydroimidazo[1,5-a]Pyrazin-7(1H)-Yl)Methyl)-2-(Thiazol-2-Yl)-1,4-Dihydropyrimidine-5-Carboxylate] | 15 |
| CCOC(=O)C1=C(CN2CCN3C(=O)N(C45CC(CNS(=O)(=O)C6CC6)(C4)C5)C[C@@H]3C2)NC(c2nccs2)=N[C@H]1c1cccc(F)c1C [Compound 23] | 4 |
| CCOC(=O)C1=C(CN2CCN3C(=O)N(C45CC(CNS(N)(=O)=O)(C4)C5)C[C@@H]3C2)NC(c2nccs2)=N[C@H]1c1cccc(F)c1C [Compound 24, Ethyl (S)-4-(3-Fluoro-2-Methylphenyl)-6-(((S)-3-Oxo-2-(3-((Sulfamoylamino)Methyl)Bicyclo[1.1.1]Pentan-1-Yl)Hexahydroimidazo[1,5-a]Pyrazin-7(1H)-Yl)Methyl)-2-(Thiazol-2-Yl)-1,4-Dihydropyrimidine-5-Carboxylate] | 9 |
| CCOC(=O)C1=C(CN2CCN3C(=O)N(C45CC(CN6CCCC6=O)(C4)C5)C[C@@H]3C2)NC(c2nccs2)=N[C@H]1c1cccc(F)c1C [Compound 25, Ethyl (S)-4-(3-Fluoro-2-Methylphenyl)-6-(((S)-3-Oxo-2-(3-((2-Oxopyrrolidin-1-Yl)Methyl)Bicyclo[1.1.1]Pentan-1-Yl)Hexahydroimidazo[1,5-a]Pyrazin-7(1H)-Yl)Methyl)-2-(Thiazol-2-Yl)-1,4-Dihydropyrimidine-5-Carboxylate] | 2 |

Same assay, conditions: HepG2.2.15, 120 h, read-out: EC50 (HepG2.2.15, nM)

| Compound | EC50 [nM] |
| --- | --- |
| CCOC(=O)C1=C(CN2CCN3C(=O)N(C45CC(CP(=O)(OCC)OCC)(C4)C5)C[C@@H]3C2)NC(c2nccs2)=N[C@H]1c1cccc(F)c1C [Compound 16, Ethyl (S)-6-(((S)-2-(3-((Diethoxyphosphoryl)Methyl)Bicyclo[1.1.1]Pentan-1-Yl)-3-Oxohexahydroimidazo[1,5-a]Pyrazin-7(1H)-Yl)Methyl)-4-(3-Fluoro-2-Methylphenyl)-2-(Thiazol-2-Yl)-1,4-Dihydropyrimidine-5-Carboxylate] | 9 |
